The data set deals with Albumin (Homo sapiens, UniProt P02768). The experiment in a line: Binding constant against human serum albumin (HSA).
Chain of Albumin (P02768 whole entry): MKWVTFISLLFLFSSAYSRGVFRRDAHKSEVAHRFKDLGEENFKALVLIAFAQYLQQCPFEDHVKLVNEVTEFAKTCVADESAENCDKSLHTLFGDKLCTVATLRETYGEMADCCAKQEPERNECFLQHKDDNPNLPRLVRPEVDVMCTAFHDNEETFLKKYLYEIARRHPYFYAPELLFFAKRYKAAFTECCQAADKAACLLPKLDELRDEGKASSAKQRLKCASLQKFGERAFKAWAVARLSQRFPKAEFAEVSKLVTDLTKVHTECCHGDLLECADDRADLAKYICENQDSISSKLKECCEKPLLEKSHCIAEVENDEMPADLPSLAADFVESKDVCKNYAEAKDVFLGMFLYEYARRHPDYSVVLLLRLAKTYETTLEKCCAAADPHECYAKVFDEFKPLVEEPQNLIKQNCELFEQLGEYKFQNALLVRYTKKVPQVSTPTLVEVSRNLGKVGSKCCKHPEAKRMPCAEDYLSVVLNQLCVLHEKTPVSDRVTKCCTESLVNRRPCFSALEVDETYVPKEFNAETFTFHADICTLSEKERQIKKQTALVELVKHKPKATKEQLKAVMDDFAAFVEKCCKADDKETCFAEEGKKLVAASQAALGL

Consider `COc1ccc(Cl)cc1C(=O)NCCc1ccc(S(=O)(=O)NC(=O)NC2CCCCC2)cc1` [GLYBURIDE], for which the “Log K'” value is reported as 0.68. As to `CCCCNc1cc(C(=O)O)cc(S(N)(=O)=O)c1Oc1ccccc1` [BUMETANIDE], the “Log K'” value is reported as 0.03. In the case of `Cc1ccc(S(=O)(=O)NC(=O)NN2CCCCCC2)cc1` [TOLAZAMIDE], the “Log K'” value worked out at 0.42.

Regarding `C=C[C@H]1C[N@@]2CC[C@H]1C[C@@H]2[C@@H](O)c1ccnc2ccc(OC)cc12` [QUINIDINE], the “Log K'” value was found to be 0.44. In the case of `CC(=O)Oc1ccccc1C(=O)O` [ASPIRIN] it was 1.39. Then `CC(C)(C)NCC(O)COc1cccc2c1CC(O)C(O)C2` (centres undefined) [NADOLOL], with 0.4; and `CC(C)(C)NC[C@H](O)COc1nsnc1N1CCOCC1` [TIMOLOL], with 0.33. As to `COc1cc2nc(N3CCN(C(=O)C4CCCO4)CC3)nc(N)c2cc1OC` (centres undefined) [TERAZOSIN], the “Log K'” value worked out at 0.16. As for `CCN(CC)CCOC(=O)c1ccc(N)cc1` [PROCAINE], the “Log K'” value turned out to be 0.19. Turning to `C[C@]12CCC(=O)C=C1CC[C@@H]1[C@@H]2[C@@H](O)C[C@@]2(C)[C@H]1CC[C@]2(O)C(=O)CO` [HYDROCORTISONE], the “Log K'” value amounted to 0.4. In the case of `Nc1ccc(S(=O)(=O)Nc2ccnn2-c2ccccc2)cc1` [SULFAPHENAZOLE] it was 0.21; in that of `CN(C/C=C/C#CC(C)(C)C)Cc1cccc2ccccc12` [TERBINAFINE], 1.17; in that of `O=C(O)c1cc(=O)c2c(OCC(O)COc3cccc4oc(C(=O)O)cc(=O)c34)cccc2o1` [CROMOLYN], 1.07. Turning to `CC(=O)O[C@H]1C[C@@]2(C)[C@@H](C[C@@H](O)[C@H]3[C@@]4(C)CC[C@@H](O)[C@@H](C)[C@@H]4CC[C@@]32C)/C1=C(\CCC=C(C)C)C(=O)O` [FUSIDIC ACID], the “Log K'” value was found to be 0.33. In the case of `CC(C)NCC(O)c1ccc(NS(C)(=O)=O)cc1` (centres undefined) [SOTALOL] it was 0.44; in that of `CNCCCN1c2ccccc2CCc2ccccc21` [DESIPRAMINE], 0.61. Then `C[C@H]1c2cccc(O)c2C(=O)C2=C(O)[C@]3(O)C(=O)C(C(N)=O)=C(O)[C@@H](N(C)C)[C@@H]3[C@@H](O)[C@@H]21.O` [DOXYCYCLINE], with 0.01; and `CC(NC(C)(C)C)C(=O)c1cccc(Cl)c1` (centres undefined) [BUPROPION], with 0.05. For the molecule `Cn1c(=O)c2c(ncn2C)n(C)c1=O` [CAFFEINE], the “Log K'” value came out at 0.92. Regarding `C[C@]12CC[C@H]3[C@@H](CCC4=CC(=O)CC[C@@]43C)[C@@H]1CC[C@@H]2O` [TESTOSTERONE], the “Log K'” value is 0.74. Then `O=c1c2ccccc2[se]n1-c1ccccc1` [EBSELEN], with 1.04. For the molecule `C[C@H]1C[C@@H]2[C@H]([C@@H](O)C[C@@]3(C)[C@H]2CC[C@]3(O)C(=O)CO)[C@@]2(C)C=CC(=O)C=C12` [METHYLPREDNISOLONE], the “Log K'” value came out at 0.22. With `CC(=O)[C@H]1CC[C@H]2[C@@H]3CCC4=CC(=O)CC[C@]4(C)[C@H]3CC[C@]12C` [PROGESTERONE], the “Log K'” value is 0.59.

For `COc1cc2nc(N3CCN(C(=O)c4ccco4)CC3)nc(N)c2cc1OC` [PRAZOSIN], the “Log K'” value is reported as 0.06.

As to `CN(C)CCCN1c2ccccc2Sc2ccccc21` [PROMAZINE], the “Log K'” value stood at 0.92. As for `CN(C)c1ccc(O)c2c1C[C@H]1C[C@H]3[C@H](N(C)C)C(O)=C(C(N)=O)C(=O)[C@@]3(O)C(O)=C1C2=O` [MINOCYCLINE], the “Log K'” value is given as 0.21. Regarding `CN(C)CCCN1c2ccccc2CCc2ccccc21` [IMIPRAMINE], the “Log K'” value is on record as 0.75. Turning to `CC1(C)S[C@@H]2[C@H](NC(=O)COc3ccccc3)C(=O)N2[C@H]1C(=O)O` [PENICILLIN V], the “Log K'” value is recorded as 0.69. In the case of `CN(C)c1cccc2c(S(=O)(=O)NCC(=O)O)cccc12` [DANSYLGLYCINE] it was -0.26; in that of `CCn1cc(C(=O)O)c(=O)c2cc(F)c(N3CCNCC3)cc21` [NORFLOXACIN], 0.14. Then `COc1cc(Cc2cnc(N)nc2N)cc(OC)c1OC` [TRIMETHOPRIM], with 0.26.

Consider `CC(C)NCC(O)COc1cccc2ccccc12` (centres undefined) [PROPRANOLOL], for which the “Log K'” value is 0.28. Regarding `Cc1ccc(/C(=C\CN2CCCC2)c2cccc(/C=C/C(=O)O)n2)cc1` [ACRIVASTINE], the “Log K'” value was found to be 0.02. Then `NS(=O)(=O)c1cc2c(cc1Cl)NCNS2(=O)=O` [HYDROCHLOROTHIAZIDE], with 0.42; and `C[C@]12CC[C@@H]3c4ccc(O)cc4CC[C@H]3[C@@H]1CC[C@@H]2O` [ESTRADIOL], with 0.68. In the case of `CO[C@@H]1[C@@H](OC(N)=O)[C@@H](O)[C@H](Oc2ccc3c(O)c(NC(=O)c4ccc(O)c(CC=C(C)C)c4)c(=O)oc3c2C)OC1(C)C` [NOVOBIOCIN] it was 0.35. With `CC1(C)S[C@@H]2[C@H](NC(=O)[C@H](N)c3ccc(O)cc3)C(=O)N2[C@H]1C(=O)O` [AMOXICILLIN], the “Log K'” value came out at 1.21. Then `C[C@H]1COc2c(N3CCN(C)CC3)c(F)cc3c(=O)c(C(=O)O)cn1c23.C[C@H]1COc2c(N3CCN(C)CC3)c(F)cc3c(=O)c(C(=O)O)cn1c23.O` [LEVOFLOXACIN], with 0.14; and `CN(C)CCCN1c2ccccc2Sc2ccc(C(F)(F)F)cc21` [TRIFLUPROMAZINE], with 1.05.

For `CC(CCc1ccccc1)NCC(O)c1ccc(O)c(C(N)=O)c1` (centres undefined) [LABETALOL], the “Log K'” value was found to be 0.14. Then `C=C[C@H]1C[N@@]2CC[C@H]1C[C@H]2[C@H](O)c1ccnc2ccc(OC)cc12` [QUININE], with 0.49; and `N[C@@H](Cc1c[nH]c2ccccc12)C(=O)O` [TRYPTOPHAN], with 0.78.

For `CN(C)[C@@H]1C(O)=C(C(N)=O)C(=O)[C@@]2(O)C(O)=C3C(=O)c4c(O)cccc4C[C@H]3C[C@@H]12` [SANCYCLINE], the “Log K'” value was determined as 0.21.

For `CCCCC1C(=O)N(c2ccccc2)N(c2ccc(O)cc2)C1=O` (centres undefined) [OXYPHENBUTAZONE ANHYDROUS], the “Log K'” value was 0.02.

As to `Cc1nccn1CC1CCc2c(c3ccccc3n2C)C1=O` (centres undefined) [ONDANSETRON], the “Log K'” value was 0.37.

Take `C[C@H]1O[C@@H](O[C@H]2[C@@H](O)C[C@H](O[C@H]3[C@@H](O)C[C@H](O[C@H]4CC[C@@]5(C)[C@H](CC[C@@H]6[C@@H]5CC[C@]5(C)[C@@H](C7=CC(=O)OC7)CC[C@]65O)C4)O[C@@H]3C)O[C@@H]2C)C[C@H](O)[C@@H]1O` [DIGITOXIN]: the “Log K'” value stood at 0.13. As for `CNS(=O)(=O)Cc1ccc2[nH]cc(CCN(C)C)c2c1`, the “Log K'” value was 0.05. Then `COCCc1ccc(OCC(O)CNC(C)C)cc1` (centres undefined) [METOPROLOL], with 0.29; and `CC(C)NCC(O)COc1cccc2[nH]ccc12` (centres undefined) [PINDOLOL], with 0.13; and `O=C(N[C@H](CO)[C@H](O)c1ccc([N+](=O)[O-])cc1)C(Cl)Cl` [CHLORAMPHENICOL], with 0.46. Take `CCC(C)n1ncn(-c2ccc(N3CCN(c4ccc(OC[C@H]5CO[C@](Cn6cncn6)(c6ccc(Cl)cc6Cl)O5)cc4)CC3)cc2)c1=O` (some centres undefined) [ITRACONAZOLE]: the “Log K'” value is recorded as 1.04.

Consider `Clc1cccc(Cl)c1N=C1NCCN1` [CLONIDINE], for which the “Log K'” value amounted to 0.13. As to `CN(Cc1cnc2nc(N)nc(N)c2n1)c1ccc(C(=O)N[C@@H](CCC(=O)O)C(=O)O)cc1` [METHOTREXATE], the “Log K'” value was 0.77. Then `CNC(=C[N+](=O)[O-])NCCSCc1ccc(CN(C)C)o1` [RANITIDINE], with 0.1. In the case of `C[C@]12C=CC(=O)C=C1CC[C@@H]1[C@@H]2[C@@H](O)C[C@@]2(C)[C@H]1CC[C@]2(O)C(=O)CO` [PREDNISOLONE] it was 0.4.

Consider `O=C(CCCN1CC=C(n2c(=O)[nH]c3ccccc32)CC1)c1ccc(F)cc1` [DROPERIDOL], for which the “Log K'” value was 0.43. In the case of `CCCNC(=O)NS(=O)(=O)c1ccc(Cl)cc1` [CHLORPROPAMIDE] it was 0.44; in that of `CCCC(=O)Nc1ccc(OCC(O)CNC(C)C)c(C(C)=O)c1` (centres undefined) [ACEBUTOLOL], 0.21. Then `Clc1ccccc1C(c1ccccc1)(c1ccccc1)n1ccnc1` [CLOTRIMAZOLE], with 1.34; and `C=CCOc1ccccc1OCC(O)CNC(C)C` (centres undefined) [OXPRENOLOL], with 0.15. On to `CC(=O)Nc1ccc(O)cc1` [ACETAMINOPHEN], for which the “Log K'” value came to 0.81. As to `CC(=O)N1CCN(c2ccc(OC[C@H]3CO[C@](Cn4ccnc4)(c4ccc(Cl)cc4Cl)O3)cc2)CC1` [KETOCONAZOLE], the “Log K'” value turned out to be 0.84. Turning to `CO/N=C(\C(=O)N[C@@H]1C(=O)N2C(C(=O)O)=C(COC(N)=O)CS[C@H]12)c1ccco1` [CEFUROXIME], the “Log K'” value is given as 1.33. In the case of `CN(C)[C@@H]1C(O)=C(C(N)=O)C(=O)[C@@]2(O)C(O)=C3C(=O)c4c(O)cccc4[C@@](C)(O)[C@H]3C[C@@H]12` [TETRACYCLINE] it was 0.08; in that of `Nc1nnc(-c2cccc(Cl)c2Cl)c(N)n1` [LAMOTRIGINE], 0.13; in that of `C[C@H](CS)C(=O)N1CCC[C@H]1C(=O)O` [CAPTOPRIL], 2.69.

In the case of `CCCCNc1ccc(C(=O)OCCN(C)C)cc1` [TETRACAINE], the “Log K'” value turned out to be 0.32.

`CC[C@@]1(O)C(=O)OCc2c1cc1n(c2=O)Cc2cc3ccccc3nc2-1` [CAMPTOTHECIN]: the “Log K'” value was found to be 0.08. Take `Cc1cc(=O)n(-c2ccccc2)n1C` [ANTIPYRINE]: the “Log K'” value is reported as 0.69. In the case of `CN/C(=N/CCSCc1nc[nH]c1C)NC#N` [CIMETIDINE] it was 0.44; in that of `C=CCc1ccccc1OCC(O)CNC(C)C` (centres undefined) [ALPRENOLOL], 0.04; in that of `CO/N=C(\C(=O)N[C@@H]1C(=O)N2C(C(=O)OC(C)OC(C)=O)=C(COC(N)=O)CS[C@H]12)c1ccco1` (some centres undefined) [CEFUROXIME AXETIL], 0.56. In the case of `CCOC(=O)C(C)(C)Oc1ccc(Cl)cc1` [CLOFIBRATE], the “Log K'” value worked out at 0.27.

As to `Nc1nc(=O)[nH]cc1F` [FLUCYTOSINE], the “Log K'” value is listed as 1.11.

Source of the values: ChEMBL document CHEMBL1134302, “Cheminformatic models to predict binding affinities to human serum albumin” (J Med Chem, 2001).
